The structures appear in SMILES notation. Where “and” joins values, the source holds several entries; their conditions need not be identical. Identical values can stand only once.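 Protocol summary: plate cells (96-well), add compound at 5 concentrations, incubate 48 h, interpolate endpoints linearly. GI50 marks 50% less growth. TGI denotes the concentration required for complete inhibition of growth.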

Holding throughout (experiment): inhibition of tumour cell growth, NCI panel, 48 h
Experiment [1] has as its system A549 NSCLC.
Experiment [2] concerns A498 renal.
For experiment [3], the system named is SK-MEL-28 melanoma.
Experiment [4] concerns MDA-MB-231 breast.
Experiment [5] has as its system DU-145 prostate.
Experiment [6] has as its system 786-0 renal.
In experiment [7] the test system is HL-60(TB) leukemia.
Experiment [8] concerns OVCAR-5 ovarian.
Experiment [9] deals with HOP-92 NSCLC.
The test system of experiment [10] is HS 578T breast.
Experiment [11] concerns SW-620 colon.
The subject of experiment [12] is CAKI-1 renal.
Experiment [13] deals with SNB-75 CNS.

As to `CCCCOC(=O)Nc1ccc(S(=O)(=O)Nc2c(Cl)cccc2Cl)cc1`, the TGI in [1] was greater than 100 µM; in experiment [2] it was 63.1 µM; in [3], 81.5 µM; in [4] it was 67.2 µM; in [5] it was greater than 100 µM; in experiment [6], 79.5 µM. For the same molecule, the TGI is greater than 100 µM in experiment [7]; greater than 100 µM in experiment [8]; 75.7 µM in experiment [9]; greater than 100 µM in experiment [10]; 90.1 µM in experiment [11]; 82.7 µM in [12].

As for `COc1cc2c(c3nc4ccccc4nc13)-c1ccc(SC)c(=O)cc1[C@@H](NC(C)=O)CC2`, the TGI in experiment [1] was greater than 100 µM; in [2], greater than 65.1 µM; in experiment [3] it was greater than 100 µM; in experiment [4], greater than 100 µM; in [13] it was greater than 100 µM; in experiment [5], 0.838 µM. Further, the TGI is greater than 100 µM in experiment [6]; greater than 100 µM in experiment [8]; greater than 75.1 µM in experiment [9]; 0.0543 µM in [10]; greater than 100 µM in experiment [11]; greater than 100 µM in experiment [12].

Turning to `Cc1ccc(N=NC(=Nc2ccc(F)cc2)c2ccc(N(CCC#N)CCC#N)cc2)cc1`, the TGI in experiment [1], in experiment [2], in experiment [3], in experiment [4], in experiment [13] and in experiment [5] was greater than 100 µM throughout. Besides, the TGI in [6], in experiment [8], in experiment [9], in experiment [10], in experiment [11] and in experiment [12] was greater than 100 µM each time.

In the case of `O=C(CN1CCCCC1)c1ccc2[nH]c(=O)oc2c1`, the TGI is greater than 100 µM in experiment [2]; greater than 100 µM in experiment [3]; greater than 100 µM in experiment [4]; 87.8 µM in experiment [13]; greater than 100 µM in [5]; greater than 100 µM in experiment [6]. Also, the TGI in experiment [7], in experiment [8], in experiment [10], in [11] and in experiment [12] was greater than 100 µM throughout.

For `C/C(=N/NC(=S)N1CCCCCC1)c1cccc(/C(C)=N\NC(=S)N2CCCCCC2)n1`, the TGI in [1] came out at 4.86 µM; in [2], 2.85 µM; in experiment [3] it was 6 µM; in [4], 3.41 µM; in experiment [13], 4.68 µM; in experiment [5] it was 6.04 µM. Also, the TGI is 2.63 µM in experiment [6]; 5.26 µM in [7]; 5.26 µM in experiment [8]; 3.58 µM in experiment [9]; 8.82 µM in experiment [10]; 3.55 µM in experiment [11].

As for `CC(C)(C)OC(=O)C1C(=O)NC(=O)CC1C(OCc1ccccc1)C(OCc1ccccc1)C(COCc1ccccc1)OCc1ccccc1` (stereo unspecified), the GI50 in experiment [1] is > 100 µM and 26.9 µM; in experiment [4], > 100 µM and 40.5 µM; in [13], 26 µM and > 7.5 µM; in [7] it was 61.7 µM and 12.8 µM; in [9], > 100 µM and 13.3 µM; in experiment [10], > 100 µM and 16.2 µM. Besides, the TGI in experiment [1], in [2], in experiment [3], in experiment [4], in [13] and in experiment [5] was greater than 100 µM in each case. Also, the TGI is greater than 100 µM in [6]; > 100 µM and 49.5 µM in [7]; greater than 100 µM in experiment [8]; greater than 100 µM in [9]; greater than 100 µM in experiment [10]; greater than 100 µM in [11].

Turning to `CN(C)CCNc1c(O)c2c(c(O)c1Cl)C(=O)C=CC2=O`, the TGI in [1] was 5.41 µM; in experiment [2], 9.74 µM; in experiment [3], 4.36 µM; in experiment [4] it was 2.72 µM; in [13], 6.55 µM; in experiment [5], 3.36 µM. The TGI in experiment [6] was 4.27 µM; in [7], 4.33 µM; in [8] it was 3.12 µM; in experiment [9], 4.25 µM; in [10], 7.56 µM; in experiment [11], 3.91 µM.

With `COC(=O)/C(=C(/C)c1ccco1)P(=O)(OC)OC`, the TGI in [1], in [2], in experiment [3], in experiment [4], in experiment [13] and in [5] was greater than 100 µM throughout. Further, the TGI in [6], in experiment [8], in [9], in experiment [10], in experiment [11] and in experiment [12] was greater than 100 µM in each case.

`OC1C2CN3CCN(C2)CC1(c1ccccc1)C3` (stereo unspecified): the TGI in [2], in [3], in experiment [4], in [13], in [5] and in experiment [6] was greater than 100 µM each time. Further, the TGI in experiment [7], in experiment [8], in experiment [10], in [11] and in experiment [12] was greater than 100 µM each time.

On to `O=c1[nH]c2c(C(F)(F)F)c(Cl)c(-c3ccccc3)nc2o1`, for which the TGI was greater than 100 µM in experiment [1]; greater than 100 µM in experiment [2]; greater than 100 µM in experiment [3]; 65.2 µM in experiment [4]; greater than 100 µM in experiment [5]; greater than 100 µM in experiment [6]. The TGI in experiment [7] was 13.7 µM; in [8], 58.2 µM; in experiment [9], 75.7 µM; in experiment [10] it was greater than 100 µM; in [11] it was greater than 100 µM; in experiment [12] it was greater than 100 µM.

Consider `O=C1C(NS(=O)(=O)c2ccccc2)=C(n2ccnc2)C(=O)c2ccccc21`, for which the TGI in experiment [1], in [3], in experiment [4], in experiment [13], in [5] and in [6] was greater than 100 µM each time. Besides, the TGI in experiment [7], in [8], in experiment [9], in experiment [10], in experiment [11] and in experiment [12] was greater than 100 µM each time.
